Measured values from patent publication US20170360795A1, “TREATMENT OF CANCERS USING PI3 KINASE ISOFORM MODULATORS” (INFINITY PHARMACEUTICALS, INC., priority 2013, published 2017).
Each block holds one compound with its values, some of them ahead of it.

What was measured:
[1] = system: GRANTA-519; details: GRANTA-519 (mantle cell lymphoma); combination with Compound 292
Procedure: (§1) The method is described as follows. Cells are thawed from a liquid nitrogen preserved state. Once cells have been expanded and divide at their expected doubling times, screening begins. Cells are seeded in growth media in either black 1536-well or 384-well tissue culture treated plates. […] These Tzero (T0) plates are read using ultra-sensitive luminescence on Envision plate readers (Perkin Elmer). […] All data points are collected via automated processes, quality controlled and analyzed using Zalicus software.
(§2) I ranges from 0% (when T=V) to 100% (when T=0). […] The measure of effect in the experiment can be the inhibition of cellular response relative to the untreated level (vehicle alone). For untreated vehicle and treated levels V and T, a fractional inhibition I=1−T/V is calculated. The inhibition ranges from 0% at the untreated level to 100% when T=0. Inhibition levels are negative for agents that actually increase levels. Other effect measures, such as an activity ratio r=T/V may be more appropriate for some assays. When activity ratios (e.g, fold increase over stimulated control) are being used, the effect can be measured using an induction I=ln(T/V). With this definition, all effect expressions are the same as for inhibition.
(§3) Growth Inhibition (GI) is used as a measure of cell viability. […] A GI reading of 100% represents complete growth inhibition −T72 compound-treated and T0 vehicle signals are matched. […] A GI reading of 200% represents complete death of all cells in the culture well. Compounds reaching an activity plateau of GI 200% are considered cytotoxic. GI is calculated by applying the following test and equation: […]
(§4) Combination analysis data were collected in a 6×6 dose matrix. Synergy is calculated by comparing a combination's response to those of its single compound, against the drug-with-itself dose-additive reference model. Deviations from dose additivity may be assessed visually on an isobologram or numerically with a Combination Index (CI). […] Additive effect is CI=1.0. […] Antagonistic effect is CI>1.0.
(§5) To measure combination effects in excess of Loewe additivity, a scalar measure to characterize the strength of synergistic interaction termed the Synergy Score is devised. The Synergy Score is calculated as: […]
(§6) The fractional inhibition for each component agent and combination point in the matrix is calculated relative to the median of all vehicle-treated control wells. The Synergy Score equation integrates the experimentally-observed activity volume at each point in the matrix in excess of a model surface numerically derived from the activity of the component agents using the Loewe model for additivity. Additional terms in the Synergy Score equation (above) are used to normalize for various dilution factors used for individual agents and to allow for comparison of synergy scores across an entire experiment. The inclusion of positive inhibition gating or an Idata multiplier removes noise near the zero effect level, and biases results for synergistic interactions at that occur at high activity levels.

[2] = system: HBL-1; details: HBL-1 (DLBCL ABC); combination with Compound 292
Procedure: as §1, §2, §3, §4, §5, §6

[3] = system: HH; details: HH (T cell lymphoma); combination with Compound 292
Procedure: as §1, §2, §3, §4, §5, §6

[4] = system: Jeko-1; details: Jeko-1 (mantle cell lymphoma); combination with Compound 292
Procedure: as §1, §2, §3, §4, §5, §6

[5] = system: KARPAS-299; details: KARPAS-299 (T cell lymphoma); combination with Compound 292
Procedure: as §1, §2, §3, §4, §5, §6

[6] = system: KARPAS-422; details: KARPAS-422 (follicular lymphoma); combination with Compound 292
Procedure: as §1, §2, §3, §4, §5, §6

[7] = system: NCI-H929; details: NCI-H929 (multiple myeloma); combination with Compound 292
Procedure: as §1, §2, §3, §4, §5, §6

[8] = system: OCI-LY3; details: OCI-Ly3 (DLBCL ABC); combination with Compound 292
Procedure: as §1, §2, §3, §4, §5, §6

[9] = system: OCI-Ly7; details: OCI-Ly7 (DLBCL GCB); combination with Compound 292
Procedure: as §1, §2, §3, §4, §5, §6

[10] = system: OPM-2; details: OPM-2 (multiple myeloma); combination with Compound 292
Procedure: as §1, §2, §3, §4, §5, §6

[11] = system: U-2932; details: U-2932 (DLBCL ABC); combination with Compound 292
Procedure: as §1, §2, §3, §4, §5, §6

[12] = system: RPMI-8226; test: combination screen with BTK inhibitors, 72 hours ATPLite; assay type: cell-based; details: RPMI-8226 (multiple myeloma); combination with Compound 292
Procedure: as §1, §2, §3, §4, §5
(§7) The fractional inhibition for each component agent and combination point in the matrix is calculated relative to the median of all vehicle-treated control wells. The Synergy Score equation integrates the experimentally-observed activity volume at each point in the matrix in excess of a model surface numerically derived from the activity of the component agents using the Loewe model for additivity. […]

[13] = molecular target: PI3K δ (Homo sapiens, UniProt O00329); test: In vitro IC50, PI3K δ (Table 3); assay type: biochemical; design: purchased Upstate
Excerpt: (§8) Other commercial kits or systems for assaying PI3K activities are available. […] An exemplary system is PI 3-Kinase (human) HTRF™ Assay from Upstate.

[14] = molecular target: T1, PI3K α (Homo sapiens, UniProt P42336); test: In vitro IC50, PI3K α (Table 3); assay type: biochemical
T1 construct: purchased Upstate
Excerpt: as §8

[15] = molecular target: T2, PI3K β (Homo sapiens, UniProt P42338); test: In vitro IC50, PI3K β (Table 3); assay type: biochemical
T2 construct: purchased Upstate
Excerpt: as §8

[16] = system: B cell; test: B cell proliferation EC50 (Table 3); assay type: cell-based
[17] = molecular target: PI3K γ (Homo sapiens, UniProt P48736); test: In vitro IC50, PI3K γ (Table 3); assay type: biochemical; design: purchased Sigma
Excerpt: as §8

[18] = system: RL; test: combination screen with BTK inhibitors, 72 hours ATPLite; assay type: cell-based; details: RL (follicular lymphoma); combination with Compound 292
Procedure: as §1, §2, §3, §4, §5, §7

T2 sequence (P42338 whole entry): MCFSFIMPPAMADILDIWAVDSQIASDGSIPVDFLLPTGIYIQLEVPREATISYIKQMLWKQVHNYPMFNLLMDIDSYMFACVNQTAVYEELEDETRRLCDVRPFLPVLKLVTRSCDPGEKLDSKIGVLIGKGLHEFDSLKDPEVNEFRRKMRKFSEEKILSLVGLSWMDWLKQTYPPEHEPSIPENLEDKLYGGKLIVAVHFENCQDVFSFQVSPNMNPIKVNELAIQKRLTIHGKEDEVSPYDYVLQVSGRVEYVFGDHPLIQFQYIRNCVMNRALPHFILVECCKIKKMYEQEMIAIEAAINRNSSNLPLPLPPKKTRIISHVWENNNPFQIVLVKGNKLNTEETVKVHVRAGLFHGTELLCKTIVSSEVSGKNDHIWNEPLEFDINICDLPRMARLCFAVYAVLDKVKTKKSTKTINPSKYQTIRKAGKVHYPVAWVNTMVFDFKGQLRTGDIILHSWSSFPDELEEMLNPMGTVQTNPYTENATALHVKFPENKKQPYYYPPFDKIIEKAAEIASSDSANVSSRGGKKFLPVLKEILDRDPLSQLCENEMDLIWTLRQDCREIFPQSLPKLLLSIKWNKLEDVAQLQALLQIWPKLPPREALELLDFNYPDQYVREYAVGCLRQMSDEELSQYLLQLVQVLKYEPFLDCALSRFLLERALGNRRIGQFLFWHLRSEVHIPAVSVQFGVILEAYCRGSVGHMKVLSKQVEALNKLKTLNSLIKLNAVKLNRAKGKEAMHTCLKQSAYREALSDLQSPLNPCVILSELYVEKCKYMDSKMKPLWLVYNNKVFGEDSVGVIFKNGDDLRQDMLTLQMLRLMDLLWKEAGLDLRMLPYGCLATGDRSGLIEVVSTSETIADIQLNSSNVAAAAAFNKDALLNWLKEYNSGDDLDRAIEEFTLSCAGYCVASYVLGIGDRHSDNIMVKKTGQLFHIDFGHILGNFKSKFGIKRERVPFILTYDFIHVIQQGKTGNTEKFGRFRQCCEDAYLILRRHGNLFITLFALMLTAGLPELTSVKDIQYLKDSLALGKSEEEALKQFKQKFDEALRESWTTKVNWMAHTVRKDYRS
T2 sequence (P27986 whole entry partner): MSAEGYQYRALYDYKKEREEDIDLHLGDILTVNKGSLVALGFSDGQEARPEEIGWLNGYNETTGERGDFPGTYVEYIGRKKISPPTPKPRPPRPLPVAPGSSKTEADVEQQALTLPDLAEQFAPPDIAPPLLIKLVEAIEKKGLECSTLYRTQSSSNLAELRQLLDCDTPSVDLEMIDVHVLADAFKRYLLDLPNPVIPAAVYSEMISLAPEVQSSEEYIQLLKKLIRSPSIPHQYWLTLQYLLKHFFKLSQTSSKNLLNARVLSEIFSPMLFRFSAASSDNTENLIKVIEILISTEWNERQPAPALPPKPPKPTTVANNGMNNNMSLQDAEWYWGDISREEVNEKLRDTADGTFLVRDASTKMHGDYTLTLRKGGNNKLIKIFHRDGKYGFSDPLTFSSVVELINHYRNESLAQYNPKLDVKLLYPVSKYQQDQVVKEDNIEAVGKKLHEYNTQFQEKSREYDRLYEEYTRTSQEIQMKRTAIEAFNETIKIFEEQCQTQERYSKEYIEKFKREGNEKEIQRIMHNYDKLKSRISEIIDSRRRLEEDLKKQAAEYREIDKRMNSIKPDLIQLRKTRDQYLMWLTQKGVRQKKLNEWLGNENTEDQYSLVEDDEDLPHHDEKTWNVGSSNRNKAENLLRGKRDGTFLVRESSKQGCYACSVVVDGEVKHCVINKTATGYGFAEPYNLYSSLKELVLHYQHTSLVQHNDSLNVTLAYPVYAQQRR
PI3K δ, sequence (O00329 whole entry): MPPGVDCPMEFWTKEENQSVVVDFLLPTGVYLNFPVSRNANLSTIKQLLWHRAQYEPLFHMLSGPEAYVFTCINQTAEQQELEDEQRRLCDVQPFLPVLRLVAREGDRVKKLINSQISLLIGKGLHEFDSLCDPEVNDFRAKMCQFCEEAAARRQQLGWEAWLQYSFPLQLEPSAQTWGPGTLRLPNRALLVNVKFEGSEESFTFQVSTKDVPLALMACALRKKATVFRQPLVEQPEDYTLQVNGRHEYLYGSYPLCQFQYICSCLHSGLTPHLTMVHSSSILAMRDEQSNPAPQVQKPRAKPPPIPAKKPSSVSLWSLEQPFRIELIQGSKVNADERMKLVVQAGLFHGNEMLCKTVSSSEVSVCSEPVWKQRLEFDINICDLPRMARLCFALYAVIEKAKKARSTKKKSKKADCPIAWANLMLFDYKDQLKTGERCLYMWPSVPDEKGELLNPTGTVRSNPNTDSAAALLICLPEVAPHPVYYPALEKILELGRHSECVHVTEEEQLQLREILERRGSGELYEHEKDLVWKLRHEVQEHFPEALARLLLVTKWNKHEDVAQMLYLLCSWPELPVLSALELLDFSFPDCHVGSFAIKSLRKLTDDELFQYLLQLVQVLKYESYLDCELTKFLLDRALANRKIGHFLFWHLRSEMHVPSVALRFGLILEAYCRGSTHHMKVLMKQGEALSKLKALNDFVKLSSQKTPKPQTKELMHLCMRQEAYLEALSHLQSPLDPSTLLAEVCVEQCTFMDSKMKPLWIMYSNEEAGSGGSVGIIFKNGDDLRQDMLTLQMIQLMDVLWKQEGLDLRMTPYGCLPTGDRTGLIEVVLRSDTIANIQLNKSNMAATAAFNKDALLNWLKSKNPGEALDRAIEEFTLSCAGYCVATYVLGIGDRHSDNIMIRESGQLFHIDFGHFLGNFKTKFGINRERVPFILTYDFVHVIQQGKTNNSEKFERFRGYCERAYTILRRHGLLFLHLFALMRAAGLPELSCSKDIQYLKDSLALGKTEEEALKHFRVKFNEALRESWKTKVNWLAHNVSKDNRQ
PI3K δ, sequence (P27986 whole entry partner): as the sequence (P27986 whole entry partner) above
PI3K γ, sequence (P48736 whole entry): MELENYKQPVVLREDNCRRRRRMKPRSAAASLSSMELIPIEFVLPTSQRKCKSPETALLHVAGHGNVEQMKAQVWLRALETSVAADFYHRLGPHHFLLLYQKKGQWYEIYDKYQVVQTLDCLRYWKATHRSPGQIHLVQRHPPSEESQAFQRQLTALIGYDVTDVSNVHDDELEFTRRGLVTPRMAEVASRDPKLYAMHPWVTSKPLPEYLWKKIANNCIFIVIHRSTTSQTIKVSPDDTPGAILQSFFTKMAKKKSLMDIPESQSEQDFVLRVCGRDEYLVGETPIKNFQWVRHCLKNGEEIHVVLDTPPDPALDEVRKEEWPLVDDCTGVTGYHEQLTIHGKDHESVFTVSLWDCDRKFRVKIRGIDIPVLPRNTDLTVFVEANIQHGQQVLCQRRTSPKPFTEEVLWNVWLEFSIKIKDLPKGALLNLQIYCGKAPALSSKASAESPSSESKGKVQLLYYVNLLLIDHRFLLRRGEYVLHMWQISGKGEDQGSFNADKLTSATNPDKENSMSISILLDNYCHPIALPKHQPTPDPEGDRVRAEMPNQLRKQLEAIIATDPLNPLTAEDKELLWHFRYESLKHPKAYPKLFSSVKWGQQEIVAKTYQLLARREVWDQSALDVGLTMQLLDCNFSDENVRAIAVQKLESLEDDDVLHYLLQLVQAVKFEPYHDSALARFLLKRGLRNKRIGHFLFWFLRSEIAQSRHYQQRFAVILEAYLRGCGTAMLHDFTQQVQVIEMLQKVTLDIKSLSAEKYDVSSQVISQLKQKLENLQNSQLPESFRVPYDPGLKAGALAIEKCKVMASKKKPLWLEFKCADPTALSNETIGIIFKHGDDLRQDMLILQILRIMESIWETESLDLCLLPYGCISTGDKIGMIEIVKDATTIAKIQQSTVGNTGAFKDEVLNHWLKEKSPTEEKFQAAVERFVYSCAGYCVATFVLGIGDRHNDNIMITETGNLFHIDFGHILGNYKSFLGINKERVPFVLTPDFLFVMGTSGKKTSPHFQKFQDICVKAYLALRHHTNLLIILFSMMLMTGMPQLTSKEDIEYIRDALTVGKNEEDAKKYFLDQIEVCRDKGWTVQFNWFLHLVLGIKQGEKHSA
T1 sequence (P42336 whole entry): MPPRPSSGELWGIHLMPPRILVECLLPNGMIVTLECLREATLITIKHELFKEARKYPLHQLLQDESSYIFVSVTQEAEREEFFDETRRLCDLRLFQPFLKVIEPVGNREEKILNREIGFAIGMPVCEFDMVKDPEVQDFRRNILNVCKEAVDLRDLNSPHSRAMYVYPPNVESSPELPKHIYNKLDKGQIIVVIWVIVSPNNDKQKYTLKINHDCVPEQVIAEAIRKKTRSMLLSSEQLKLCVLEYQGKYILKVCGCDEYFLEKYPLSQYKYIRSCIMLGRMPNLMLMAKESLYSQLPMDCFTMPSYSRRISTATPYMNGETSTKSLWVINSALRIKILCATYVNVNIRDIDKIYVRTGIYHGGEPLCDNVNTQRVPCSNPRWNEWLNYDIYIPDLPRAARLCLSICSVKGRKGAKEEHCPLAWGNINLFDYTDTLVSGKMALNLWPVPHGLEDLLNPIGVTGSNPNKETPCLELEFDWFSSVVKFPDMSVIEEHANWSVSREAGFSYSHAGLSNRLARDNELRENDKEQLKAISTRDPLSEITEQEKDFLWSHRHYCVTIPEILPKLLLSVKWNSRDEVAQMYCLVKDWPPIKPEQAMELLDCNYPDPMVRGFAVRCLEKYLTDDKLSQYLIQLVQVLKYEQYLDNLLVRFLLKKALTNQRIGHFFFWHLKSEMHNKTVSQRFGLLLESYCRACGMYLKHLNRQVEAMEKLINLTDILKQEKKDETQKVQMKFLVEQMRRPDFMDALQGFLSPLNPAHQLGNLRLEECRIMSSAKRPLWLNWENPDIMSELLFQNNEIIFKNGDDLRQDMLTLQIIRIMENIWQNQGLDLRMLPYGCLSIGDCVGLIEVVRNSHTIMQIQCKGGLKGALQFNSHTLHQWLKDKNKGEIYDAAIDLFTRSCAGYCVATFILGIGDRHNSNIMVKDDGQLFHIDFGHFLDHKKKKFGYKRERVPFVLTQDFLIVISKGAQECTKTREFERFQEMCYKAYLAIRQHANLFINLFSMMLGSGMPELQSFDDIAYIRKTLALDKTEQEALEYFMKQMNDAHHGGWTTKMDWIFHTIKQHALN
T1 sequence (P27986 whole entry partner): as the sequence (P27986 whole entry partner) above

Structure (SMILES): C=CC(=O)Nc1cccc(Nc2nc(Nc3ccc(OCCOC)cc3)ncc2F)c1 [AVL-292, N-(3-((5-fluoro-2-((4-(2-methoxyethoxy)phenyl)amino)pyrimidin-4-yl)amino)phenyl)acrylamide]
CI50 (growth inhibition) [1]: W (W=≧1)
CI50 (inhibition) [2]: W (W=≧1)
CI50 (inhibition) [3]: U (U=0.7 to <1)
CI50 (growth inhibition) [4]: U (U=0.7 to <1)
CI50 (inhibition) [4]: U (U=0.7 to <1)
CI50 (growth inhibition) [5]: U (U=0.7 to <1)
CI50 (growth inhibition) [6]: U (U=0.7 to <1)
CI50 (growth inhibition) [7]: U (U=0.7 to <1)
CI50 (inhibition) [7]: U (U=0.7 to <1)
CI50 (growth inhibition) [8]: U (U=0.7 to <1)
CI50 (growth inhibition) [9]: W (W=≧1)
CI50 (inhibition) [10]: U (U=0.7 to <1)
CI50 (inhibition) [11]: W (W=≧1)
CI50 (growth inhibition) [12]: U (U=0.7 to <1)
CI50 (inhibition) [12]: W (W=≧1)

IC50 [13]: < 1 µM
Structure (SMILES): Cc1ccccc1-n1c(Cn2nc(I)c3c(N)ncnc32)cc2cccc(C)c2c1=O [Compound 31]

IC50 [14]: > 10 µM
IC50 [15]: > 10 µM
IC50 [17]: > 10 µM
IC50 [13]: < 0.1 µM
Structure (SMILES): N#Cc1nn(Cc2cc3ccccc3c(=O)n2-c2ccccc2F)c2ncnc(N)c12 [Compound 169]
EC50 [16]: < 1 µM

IC50 [13]: < 1 µM
Structure (SMILES): Cc1cccc2cc(C(C)n3nc(-c4cn[nH]c4)c4c(N)ncnc43)n(C3CCN(C)CC3)c(=O)c12 (stereo not shown) [Compound 226]

IC50 [15]: < 10 µM
IC50 [13]: < 1 µM
Structure (SMILES): Cc1cccc2cc(C(C)Nc3ncnc4[nH]cnc34)n(C3CCN(C)CC3)c(=O)c12 (stereo not shown) [Compound 228]

IC50 [14]: > 10 µM
IC50 [15]: > 10 µM
IC50 [17]: < 1 µM
Structure (SMILES): Cc1cccc2cc([C@H](C)Nc3ncnc4[nH]cnc34)n(-c3ccccc3)c(=O)c12 [Compound 238]

IC50 [15]: < 10 µM
IC50 [17]: < 1 µM
IC50 [13]: < 1 µM
Structure (SMILES): CC(=O)Nc1nc2cc(-c3nn(Cc4cc5cccc(C)c5c(=O)n4-c4ccccc4)c4ncnc(N)c34)ccc2o1 [Compound 269]

IC50 [14]: > 10 µM
IC50 [15]: > 10 µM
IC50 [17]: > 10 µM
IC50 [13]: > 10 µM
Structure (SMILES): Cc1cccc2cc([C@H](C)Nc3ncnc4[nH]c(Cl)cc34)n(C3CC3)c(=O)c12 [Compound 280]

Structure (SMILES): C=CC(=O)N1CCC[C@@H](n2nc(-c3ccc(Oc4ccccc4)cc3)c3c(N)ncnc32)C1 [ibrutinib]
CI50 (growth inhibition) [7]: U (U=0.7 to <1)
CI50 (growth inhibition) [18]: U (U=0.7 to <1)
CI50 (inhibition) [18]: W (W=≧1)
